Reference: patent US20080014186A1, “Hla-A24 or Hla-A2 Binding Peptides of Parathyroid Hormone-Related Protein” (GREEN PEPTIDE CO., LTD., priority 2004, published 2008)

Legend:
[1] = test system: PBMCs of HLA-A24^+ healthy donors and prostate cancer patients; assay: Assay for peptide-specific CTLs in PBMCs (IFN-γ ELISA, peptide-pulsed C1R-A24 cells); type: cell-based, human; conditions: for IFN-γ production: C1R-A24 cells, HIV peptide background subtracted
Procedure: To investigate the immunogenicity of these four PTHrP peptides, the PBMCs of 10 HLA-A24^+ healthy donors and 10 HLA-A24^+ prostate cancer patients were stimulated with each of the four PTHrP peptides and were examined for their IFN-γ production in response to C1R-A24 cells, which were pre-pulsed with either a corresponding PTHrP peptide or the HIV peptide. Flu- and EBV-derived peptides were used as controls.
The assay for detection of peptide-specific CTLs in PBMCs was performed according to a previously reported method. In brief, PBMCs (1 X 10^5 cells/well) were incubated with […] of each peptide in a U-bottom-type 96-well microculture plate (Nunc, Roskilde, Denmark) at a volume of 200 μl of culture medium. The culture medium consisted of 45% RPMI-1640, 45% AIM-V medium (Gibco BRL), 10% FCS, 100 U/ml of IL-2, and 0.1 mM MEM nonessential amino acid solution (Gibco, BRL). Half of the culture medium was removed and replaced with new medium containing a corresponding peptide (20 μg/ml) every 3 days. On the 15th day of culture, the cultured cells were separated into 4 wells, and two wells were used for PTHrP peptide-pulsed C1R-A24 cells, and the other two wells were used for the HIV peptide-pulsed C1R-A24 cells. After an 18-hr incubation period, the supernatants were collected, and the level of IFN-γ was determined by ELISA (limit of sensitivity: 10 pg/ml).
The assay was carried out in quadruplicate, and the mean of two wells which show the highest significance compared to the control is shown in Table 1.
It was then determined whether PBMCs stimulated by either the PTHrP 36-44 or the PTHrP 102-111 peptide could induce prostate cancer-reactive CTLs from HLA-A24^+ healthy donors and prostate cancer patients. PBMCs from HLA-A24^+ healthy donors and prostate cancer patients were repeatedly stimulated with these PTHrP peptides. On day 15, half of the cultured cells were harvested, pooled from 4 wells, and cultured with C1R-A24 cells, which were pre-pulsed with the HIV peptide (open symbol) and the indicated PTHrP peptide (closed symbol) for 18-hr. The levels of IFN-γ in the supernatants were then determined by ELISA.

[2] = test system: IgG in plasma of HLA-A24^+ healthy donors and prostate cancer patients; assay: Peptide-specific IgG in plasma by ELISA (HLA-A24-binding PTHrP peptides); set-up: species or system human; conditions: for IgG reactive to the peptide in plasma: 1:100-diluted plasma
From the text: The inventors previously reported that IgGs reactive to CTL epitope peptides were detected in healthy donors and patients with various types of cancers. IgGs reactive to prostate-related antigens were also detected in healthy donors and prostate cancer patients. It was examined, therefore, whether IgG reactive to the four PTHrP-derived peptides, PTHrP 36-44, PTHrP 102-111, PTHrP 25-34, and PTHrP 110-119, could be detected in the plasma of cancer patients and healthy donors.
Peptide-specific IgG levels in the plasma were measured by ELISA, as previously reported. In brief, peptide (20 μg/well)-immobilized plates were blocked with Block Ace (Yukijirushi, Tokyo, Japan) and washed with 0.05% Tween20-PBS, after which 100 μl/well of plasma sample diluted with 0.05% Tween20-Block Ace was added to the plate. After 2 hours incubation at 37° C., the plates were washed and further incubated for 2 hours with a 1:1000-diluted rabbit anti-human IgG (γ-chain-specific) (DAKO, Glostrup, Denmark). The plates were washed, and then 100 μl of 1:100-diluted goat anti-rabbit IgG-conjugated horseradish peroxidase (EnVision, DAKO) was added to each well, and the plates were then incubated at room temperature for 40 min. After the plates were washed once, 100 μl/well of tetramethyl benzidine substrate solution (KPL, Guildford, UK) was added, and the reaction was stopped by the addition of 1 M phosphoric acid. The values are shown as optical density (OD) units/ml, and responses to the HIV peptide were subtracted. IgG reactive to a corresponding PTHrP peptide was judged to be positive when the difference of the OD in 1:100-diluted plasma exceeded 0.05. The results that IgG reactive to either the PTHrP102-111 or the […] peptide was detected in 8 of 10 healthy donors and in 7 of 10 prostate cancers are shown in Table 2 hereinafter.
To confirm the specificity of IgG to the indicated PTHrP peptide, 100 μl of sample plasma from either HD #1 and Pt #6 was cultured in a plate pre-coated with either a corresponding PTHrP peptide or an irrelevant PTHrP peptide. Thereafter, the levels of IgG reactive to the PTHrP 102-111 peptide or the PTHrP 110-119 peptide in the resulting supernatants were determined by ELISA.

[3] = HLA-A24^+ prostate cancer patient #1
[4] = HLA-A24^+ prostate cancer patient #2
[5] = HLA-A24^+ prostate cancer patient #3
[6] = HLA-A24^+ prostate cancer patient #4
[7] = HLA-A24^+ prostate cancer patient #5
[8] = HLA-A24^+ prostate cancer patient #6
[9] = HLA-A24^+ prostate cancer patient #7
[10] = HLA-A24^+ prostate cancer patient #8
[11] = HLA-A24^+ prostate cancer patient #9
[12] = HLA-A24^+ prostate cancer patient #10
[13] = HLA-A24^+ prostate cancer patients

KVETYKEQPL [PTHrP 110-119]
IFN-γ production ([1]; HLA-A24^+ healthy donor #1): 394 pg/mL
IFN-γ production ([1]; HLA-A24^+ healthy donor #2): 17 pg/mL
IFN-γ production ([1]; HLA-A24^+ healthy donor #3): 20 pg/mL
IFN-γ production ([1]; HLA-A24^+ healthy donor #4): 2 pg/mL
IFN-γ production ([1]; HLA-A24^+ healthy donor #5): 38 pg/mL
IFN-γ production ([1]; HLA-A24^+ healthy donor #6): 357 pg/mL
IFN-γ production ([1]; HLA-A24^+ healthy donor #7): 0 pg/mL
IFN-γ production ([1]; HLA-A24^+ healthy donor #8): 1017 pg/mL
IFN-γ production ([1]; HLA-A24^+ healthy donor #9): 61 pg/mL
IFN-γ production ([1]; HLA-A24^+ healthy donor #10): 0 pg/mL
induced peptide-specific CTLs, number of donors ([1]; HLA-A24^+ healthy donors): 3 of 10
Total (donors with significant peptide-specific IFN-γ production / donors tested) ([1]; HLA-A24^+ healthy donors, p < 0.05): 3/10
IFN-γ production [1, 3]: 0 pg/mL
IFN-γ production [1, 4]: 9 pg/mL
IFN-γ production [1, 5]: 38 pg/mL
IFN-γ production [1, 6]: 19 pg/mL
IFN-γ production [1, 7]: 10 pg/mL
IFN-γ production [1, 8]: 14 pg/mL
IFN-γ production [1, 9]: 0 pg/mL
IFN-γ production [1, 10]: 23 pg/mL
IFN-γ production [1, 11]: 0 pg/mL
IFN-γ production [1, 12]: 118 pg/mL
induced peptide-specific CTLs (peptide-specific IFN-γ production), number of patients [1, 13]: 1 of 10
Total (patients with significant peptide-specific IFN-γ production / patients tested) ([1]; HLA-A24^+ prostate cancer patients, p < 0.05): 1/10
IgG reactive to the peptide in plasma ([2]; HLA-A24^+ healthy donor #1): + (IgG reactive to a corresponding peptide was judged to be positive when the difference of the OD in 1:100-diluted plasma exceeded 0.05.)
IgG reactive to the peptide in plasma ([2]; HLA-A24^+ healthy donor #2): + (IgG reactive to a corresponding peptide was judged to be positive when the difference of the OD in 1:100-diluted plasma exceeded 0.05.)
IgG reactive to the peptide in plasma ([2]; HLA-A24^+ healthy donor #3): + (IgG reactive to a corresponding peptide was judged to be positive when the difference of the OD in 1:100-diluted plasma exceeded 0.05.)
IgG reactive to the peptide in plasma ([2]; HLA-A24^+ healthy donor #4): − (IgG reactive to a corresponding peptide was judged to be positive when the difference of the OD in 1:100-diluted plasma exceeded 0.05.)
IgG reactive to the peptide in plasma ([2]; HLA-A24^+ healthy donor #5): + (IgG reactive to a corresponding peptide was judged to be positive when the difference of the OD in 1:100-diluted plasma exceeded 0.05.)
IgG reactive to the peptide in plasma ([2]; HLA-A24^+ healthy donor #6): − (IgG reactive to a corresponding peptide was judged to be positive when the difference of the OD in 1:100-diluted plasma exceeded 0.05.)
IgG reactive to the peptide in plasma ([2]; HLA-A24^+ healthy donor #7): + (IgG reactive to a corresponding peptide was judged to be positive when the difference of the OD in 1:100-diluted plasma exceeded 0.05.)
IgG reactive to the peptide in plasma ([2]; HLA-A24^+ healthy donor #8): + (IgG reactive to a corresponding peptide was judged to be positive when the difference of the OD in 1:100-diluted plasma exceeded 0.05.)
IgG reactive to the peptide in plasma ([2]; HLA-A24^+ healthy donor #9): + (IgG reactive to a corresponding peptide was judged to be positive when the difference of the OD in 1:100-diluted plasma exceeded 0.05.)
IgG reactive to the peptide in plasma ([2]; HLA-A24^+ healthy donor #10): + (IgG reactive to a corresponding peptide was judged to be positive when the difference of the OD in 1:100-diluted plasma exceeded 0.05.)
IgG reactive to the peptide detected, number of donors ([2]; HLA-A24^+ healthy donors): 8 of 10
Total (IgG-positive donors / donors tested) ([2]; HLA-A24^+ healthy donors): 8/10
IgG reactive to the peptide in plasma [2, 3]: + (IgG reactive to a corresponding peptide was judged to be positive when the difference of the OD in 1:100-diluted plasma exceeded 0.05.)
IgG reactive to the peptide in plasma [2, 4]: + (IgG reactive to a corresponding peptide was judged to be positive when the difference of the OD in 1:100-diluted plasma exceeded 0.05.)
IgG reactive to the peptide in plasma [2, 5]: − (IgG reactive to a corresponding peptide was judged to be positive when the difference of the OD in 1:100-diluted plasma exceeded 0.05.)
IgG reactive to the peptide in plasma [2, 6]: − (IgG reactive to a corresponding peptide was judged to be positive when the difference of the OD in 1:100-diluted plasma exceeded 0.05.)
IgG reactive to the peptide in plasma [2, 7]: − (IgG reactive to a corresponding peptide was judged to be positive when the difference of the OD in 1:100-diluted plasma exceeded 0.05.)
IgG reactive to the peptide in plasma [2, 8]: + (IgG reactive to a corresponding peptide was judged to be positive when the difference of the OD in 1:100-diluted plasma exceeded 0.05.)
IgG reactive to the peptide in plasma [2, 9]: + (IgG reactive to a corresponding peptide was judged to be positive when the difference of the OD in 1:100-diluted plasma exceeded 0.05.)
IgG reactive to the peptide in plasma [2, 10]: + (IgG reactive to a corresponding peptide was judged to be positive when the difference of the OD in 1:100-diluted plasma exceeded 0.05.)
IgG reactive to the peptide in plasma [2, 11]: + (IgG reactive to a corresponding peptide was judged to be positive when the difference of the OD in 1:100-diluted plasma exceeded 0.05.)
IgG reactive to the peptide in plasma [2, 12]: + (IgG reactive to a corresponding peptide was judged to be positive when the difference of the OD in 1:100-diluted plasma exceeded 0.05.)
IgG reactive to the peptide detected, number of patients [2, 13]: 7 of 10
Total (IgG-positive patients / patients tested) [2, 13]: 7/10
Peptide-specific absorption of IgG (level after culturing plasma in corresponding peptide-coated wells) ([2]; plasma from HD #1 and Pt #6, FIG. 3B): significantly diminished
